From patent US6858618B2, “Use of rosuvastatin (zd-4522) in the treatment of heterozygous familial hypercholesterolemia” (AstraZeneca AB, priority 2000, dated 2005)
Marks after values point to notes of the source that are not given here.

Columns and labels:
[1] = system: subjects with heterozygous familial hypercholesterolemia; assay: 24-week randomised double-blind Phase III trial of ZD4522 versus atorvastatin: efficacy (lipids, guideline targets, CRP); format: in vivo, human; conditions: for mean % reduction in LDL-C / Percentage subjects reaching EAS target for LDL-C levels at Week 18, high-risk / Percentage subjects reaching EAS target for LDL-C levels at Week 18, overall / Percentage subjects reaching NCEP target for LDL-C levels at Week 18, high-risk / Percentage subjects reaching NCEP target for LDL-C levels at Week 18, overall / Percentage change from baseline to Week 18 in inflammatory marker CRP / Lsmean of percentage change from baseline to Week 18 in ApoA-I / Lsmean of percentage change from baseline to Week 18 in ApoB / Lsmean of percentage change from baseline to Week 18 in ApoB/ApoA-I ratio / Lsmean of percentage change from baseline to Week 18 in HDL-C / Lsmean of percentage change from baseline to Week 18 in LDL-C / Lsmean of percentage change from baseline to Week 18 in LDL-C/HDL-C ratio / Lsmean of percentage change from baseline to Week 18 in Non-HDL-C/HDL-C ratio / Lsmean of percentage change from baseline to Week 18 in TC / Lsmean of percentage change from baseline to Week 18 in TC/HDL-C ratio / Lsmean of percentage change from baseline to Week 18 in TG: HeFH subjects; for mean % reduction in LDL-C / Percentage subjects reaching EAS target for LDL-C levels at Week 18, high-risk / Percentage subjects reaching EAS target for LDL-C levels at Week 18, overall / Percentage subjects reaching NCEP target for LDL-C levels at Week 18, high-risk / Percentage subjects reaching NCEP target for LDL-C levels at Week 18, overall / Percentage change from baseline to Week 18 in inflammatory marker CRP: 20/40/80 mg; for mean % reduction in LDL-C: primary efficacy analysis; for Percentage subjects reaching EAS target for LDL-C levels at Week 18, high-risk / Percentage subjects reaching EAS target for LDL-C levels at Week 18, overall / Percentage subjects reaching NCEP target for LDL-C levels at Week 18, high-risk / Percentage subjects reaching NCEP target for LDL-C levels at Week 18, overall / Lsmean of percentage change from baseline to Week 18 in ApoA-I / Lsmean of percentage change from baseline to Week 18 in ApoB / Lsmean of percentage change from baseline to Week 18 in ApoB/ApoA-I ratio / Lsmean of percentage change from baseline to Week 18 in HDL-C / Lsmean of percentage change from baseline to Week 18 in LDL-C / Lsmean of percentage change from baseline to Week 18 in LDL-C/HDL-C ratio / Lsmean of percentage change from baseline to Week 18 in Non-HDL-C/HDL-C ratio / Lsmean of percentage change from baseline to Week 18 in TC / Lsmean of percentage change from baseline to Week 18 in TC/HDL-C ratio / Lsmean of percentage change from baseline to Week 18 in TG: Week 18, LOCF on ITT population; for Percentage change from baseline to Week 18 in inflammatory marker CRP: Week 18, observed data; for Lsmean of percentage change from baseline to Week 18 in ApoA-I / Lsmean of percentage change from baseline to Week 18 in ApoB / Lsmean of percentage change from baseline to Week 18 in ApoB/ApoA-I ratio / Lsmean of percentage change from baseline to Week 18 in HDL-C / Lsmean of percentage change from baseline to Week 18 in LDL-C / Lsmean of percentage change from baseline to Week 18 in LDL-C/HDL-C ratio / Lsmean of percentage change from baseline to Week 18 in Non-HDL-C/HDL-C ratio / Lsmean of percentage change from baseline to Week 18 in TC / Lsmean of percentage change from baseline to Week 18 in TC/HDL-C ratio / Lsmean of percentage change from baseline to Week 18 in TG: oral once daily, forced titration 20/40/80 mg
Protocol: We have conducted a Phase III trial designed to assess the efficacy of ZD4522 in subjects with HeFH. The dose-response of ZD4522 was compared with atorvastatin using the percentage change from baseline in LDL-C levels as the primary end-point. Doses of ZD4522 up to 80 mg per day were use& Atorvastatin was chosen as the comparator statin in this trial because it has the best LDL-C lowering activity of the currently marketed statins.
The primary objective was to compare the efficacy of ZD4522 (titrated to 80 mg) with that of atorvastatin (titrated to 80 mg) in reducing low-density lipoprotein cholesterol (LDL-C) levels in subjects with heterozygous familial hypercholesterolemia (HeFH) after 18 weeks of treatment.
Population: A total of 265 (200 in the ZD4522 group, 65 in the atorvastatin group) randomised to and evaluable subjects with documented heterozygous F, derived from approximately 1240 recruited subjects, were required to enable 80% power in detecting a 6% difference between groups in the percentage change from baseline in LDL-C levels.
Key exclusion criteria: Various concomitant illnesses, including active liver disease or hepatic dysfunction (defined by an alanine aminotransferase [ALT], aspartate amninotransferase [AST] or bilirubin concentration […] of normal [ULN]), active arterial disease, history of malignancy (unless basal or squamous cell skin carcinoma), uncontrolled hypertension, and uncontrolled hypothyroidism; serum creatine kinase (CK) concentration >3×ULN; usage of concomitant medications known to affect the lipid profile or present a potential safety concern (for example, through drug interaction).
Efficacy: Fasting LDL-C, total cholesterol (TC), high-density lipoprotein cholesterol (HDL-C), and TG were assessed at, Weeks 0, 2, 6, 12, and 18; fasting apolipoprotein (ApoB) and apolipoprotein A-I (ApoA-I) were assessed at Weeks 0 and 18; C-reactive protein (CRP) was assessed at Weeks 0 and 18. Dietary compliance throughout the trial was assessed and evaluated.
The primary end-point was the percentage change from baseline to Week 18 in LDL-C levels, and was analysed using analysis of variance (ANOVA) on last observations carried forward (LOCF) from an intention-to-treat (ITT) population; the initial ANOVA model included terms for treatment, center, and center-by-treatment interaction. Additional analyses using observed data from ITT and per-protocol (PP) populations were used to confirm the robustness of the Main ITT analysis.
Percentage changes from baseline in the other lipids and lipoproteins were secondary end-points of the trial and were analysed using ANOVA. The other secondary end-points of the percentage of subjects in the ITT population who achieved targets for LDL-C levels specified by the National Cholesterol Education Program (NCEP) or the European Atherosclerosis Society (EAS), and the percentage change from baseline in the inflammatory marker CRP, were summarised only.

[2] = system: subjects with heterozygous familial hypercholesterolemia; assay: 24-week randomised double-blind Phase III trial of ZD4522 versus atorvastatin: safety assessments; conditions: HeFH subjects, 20/40/80 mg, safety population
Protocol: A further secondary objective was to determine the safety of ZD4522.
Design: A 24-week, randomised, double-blind, 2-group, parallel-group, forced-titration, multicentre, multinational trial. After a 6-week dietary lead-in period, subjects were randomised to treatment with either ZD4522 20 mg, or atorvastatin 20 mg for 6 weeks. Following this initial treatment period, all subjects with an LDL-C level >1.3 mmol/L (50 mg/dL) were force-titrated at 6-week intervals as follows; from ZD4522 20 to 40 to 80 mg, and from atorvastatin 20 to 40 to 80 mg. The maximum titrated dose of either treatment after 18 weeks was 80 mg.
Dosage: Subjects took oral doses of trial treatment once daily, approximately 3 hours after the evening meal. Doses of treatments were as follows; ZD4522 20, 40, and 80 mg, atorvastatin 20, 40, and 80 mg. Subjects had their doses titrated up at 6-week intervals in a sequential manner, if appropriate.
Safety: Standard safety assessments included adverse event pot clinical laboratory data (hepatic biochemistry, CK, renal biochemistry, haematology, urinalysis), vital signs, electrocardiograms (ECGs) and physical examination.

Row | Compound | mean % reduction in LDL-C ([1]; 18 weeks, LOCF) [%] | Percentage subjects reaching EAS target for LDL-C levels at Week 18, high-risk [1] [%] | Percentage subjects reaching EAS target for LDL-C levels at Week 18, overall [1] [%] | Percentage subjects reaching NCEP target for LDL-C levels at Week 18, high-risk [1] [%] | Percentage subjects reaching NCEP target for LDL-C levels at Week 18, overall [1] [%] | Percentage change from baseline to Week 18 in inflammatory marker CRP [1] [%] | Lsmean of percentage change from baseline to Week 18 in ApoA-I [1] | Lsmean of percentage change from baseline to Week 18 in ApoB [1] | Lsmean of percentage change from baseline to Week 18 in ApoB/ApoA-I ratio [1] | Lsmean of percentage change from baseline to Week 18 in HDL-C [1] | Lsmean of percentage change from baseline to Week 18 in LDL-C [1] | Lsmean of percentage change from baseline to Week 18 in LDL-C/HDL-C ratio [1] | Lsmean of percentage change from baseline to Week 18 in Non-HDL-C/HDL-C ratio [1] | Lsmean of percentage change from baseline to Week 18 in TC [1] | Lsmean of percentage change from baseline to Week 18 in TC/HDL-C ratio [1] | Lsmean of percentage change from baseline to Week 18 in TG [1] | further results
1 | CC(C)c1c(C(=O)Nc2ccccc2)c(-c2ccccc2)c(-c2ccc(F)cc2)n1CC[C@@H](O)C[C@@H](O)CC(=O)O [Atorvastatin, atorvastatin] | 50.41 | 24.2 | 24.1 | 3.2 | 46.0 | 31.28 | −2.33^b % | −44.44^b % | −42.46^b % | 2.91^b % | −50.41^b % | −51.16^b % | −49.86^b % | −42.13^b % | −43.17^b % | −31.60^ns % | clinically significant elevations (≧10×ULN) in CK [2]: no clinically significant elevations; incidence of clinically significant elevations in ALT (≧3×ULN) [2]: 1.1%; number of patients with clinically significant elevations in ALT (≧3×ULN) [2]: 2 patients; overall incidence of AEs (including treatment-related AEs, AEs leading to withdrawals and SAEs) [2]: 65.8%
2 | CC(C)c1nc(N(C)S(C)(=O)=O)nc(-c2ccc(F)cc2)c1/C=C/[C@@H](O)C[C@@H](O)CC(=O)O [ZD4522, (E)-7-[4-(4-fluorophenyl)-6-isopropyl-2-[methyl(methylsulfonyl)amino]pyrimidin-5-yl](3R,5S)-3,5-dihydroxyhept-6-enoic acid] | 57.88 | 47.5 | 47.4 | 23.9 | 60.5 | 25.21 | 5.86^b % | −50.21^b % | −52.03^b % | 12.36^b % | −57.88^b % | −61.69^b % | −59.40^b % | −46.35^b % | −51.44^b % | −27.82^ns % | difference between treatments in % reduction in LDL-C (versus atorvastatin 20/40/80 mg) ([1]; 18 weeks, LOCF, ZD4522 20/40/80 mg versus atorvastatin 20/40/80 mg): > 6%
